# Entries after “also recorded” stand apart in the source; their conditions may differ.
# Columns and labels:
# [1] = test system: CD34+ cells from newly diagnosed CML patients; assay: Colony forming assay of CD34+ cells from newly diagnosed CML patients; assay type: cell-based, human; conditions: day 14 CFU-GM; lentiviral CCmut3 or 2.5 μM imatinib vs EV
# Protocol: Primary cells were seeded in Methocult H4230 (Stem Cell Technologies) as described previously (Fleischman, A. G., et al. (2011). Blood 118, 6392-6398). Briefly, lentivirus-infected (GFP^+) cells were isolated by FACS and resuspended in RPMI1640. Cells were plated in Methocult H4230 at 1,000 cells/mL supplemented with 1× StemSpan CC100 cytokine mix (StemCell Technologies) with or without TKI as indicated in each experiment. Plates were incubated at 37° C. in a 5% CO2 humidified incubator for 14 days. Colony forming units of granulocyte-macrophage (CFU-GM) were counted on day 14 using an inverted microscope.
# Following selection of transfected cells by cell sorting, methylcellulose colony assays were performed by plating in 0.9% methylcellulose (Stem Cell Technologies; M3234 for Ba/F3 BCR-ABL1 native and mutant lines; M3434 for Ba/F3 parental cells; H4230 for CML patient samples). mCherry-positive Ba/F3 cells (1.1×10^3 cells/plate) or GFP-positive primary CML CD34+ cells (1×10^3 cells/plate) were seeded per dish in duplicate. In the case of CML patient samples, cells were plated in the presence of 1× StemSpan CC100 cytokine cocktail (StemCell Technologies). All cells were plated with or without the indicated TKI in three or more independent experiments. Plates were incubated at 37° C. in a 5% CO2 humidified incubator. Colonies were counted 7-14 days later in an area of 50 μm2 per dish using an inverted microscope.
# [2] = test system: CML CD34+ cells expressing BCR-ABL1T315I; assay: Colony forming assay of primary CML CD34+ cells expressing BCR-ABL1T315I (samples R1, R2); assay type: cell-based, human; conditions: sample R1 (accelerated phase); lentiviral CCmut3 or 10 nM ponatinib vs EV
# Protocol: Mononuclear cells (MNCs) were separated from the peripheral blood of patients with newly diagnosed or therapy-resistant CML with a documented T315I mutation, using Ficoll (Nycomed, Oslo, Norway). Isolation of the CD34^+ fraction was done on an autoMACS Pro (Miltenyi Biotech). […] Cells were infected with lentivirus at a multiplicity of infection (MOI) of 5 for each construct at 24 and 48 hours following harvest (fresh cells) or thaw (frozen cells). Cells were sorted on a BD FACSAria cytometer after 72 h, and GFP-positive cells were returned to culture medium for future experiments. All patients gave their informed consent in accordance with the Declaration of Helsinki, and all studies with human specimens were approved by The University of Utah Institutional Review Board (IRB).
# Briefly, lentivirus-infected (GFP^+) cells were isolated by FACS and resuspended in RPMI1640. […] Plates were incubated at 37° C. in a 5% CO2 humidified incubator for 14 days. Colony forming units of granulocyte-macrophage (CFU-GM) were counted on day 14 using an inverted microscope.
# All cells were plated with or without the indicated TKI in three or more independent experiments. Plates were incubated at 37° C. in a 5% CO2 humidified incubator. Colonies were counted 7-14 days later in an area of 50 μm2 per dish using an inverted microscope.
# [3] = test system: CML CD34+ cells expressing BCR-ABL1T315I; assay: Liquid culture of primary T315I CML cells; assay type: cell-based, human; conditions: CC^mut3 or increasing concentrations of ponatinib (FIG. 28C)
# Protocol: Cell proliferation was assessed using the CellTiter 96® AQueous One Solution Cell Proliferation Assay (MTS assay, Promega) according to manufacturer instructions. Briefly, 5,000 viable cells were added to a single well in 96-well plate in 100 μL RPMI1640. Three independent samples were seeded in duplicate for each time point. […] In some experiments, cell proliferation was assessed using a Neubauer chamber and trypan blue dye exclusion.
# [4] = Phase III trial for first-line therapy in CML patients, discontinued; cited from earlier work
# [5] = test system: K562 cells; assay: Colony forming assay of transfected K562 cells; assay type: cell-based, human; conditions: for colony formation (transformative ability), in words: construct delivered as a gene by transfection, vs EGFP (and WT) control
# Protocol: Both EGFP and EGFP-CC^mut3 were transfected into separate groups of cells on day 0. One day following transfection, 1.0×10^6 cells per treatment group were collected and re-suspended in 1.0 mL of PBS. Through serial dilutions, 1.0×10^3 cells in IMDM (Isocove's modified Dulbecco's media) with 2% FBS were seeded into methylcellulose medium in the absence of cytokines (MethoCult H4230 for K562 cells and MethoCult M3234 for p210 and p210-T315I cells) or in the presence of cytokines (MethoCult GF M3434 for parental Ba/F3 cells). Ponatinib was then added in the correct molar amounts (0, 100 pM, 1 nM, or 10 nM) to the methylcellulose medium. Colonies formed were counted after 7 days of incubation. All reagents were purchased from Stem Cell Technologies, Vancouver, BC, Canada. Assay was run three separate times (n=3) in duplicate.
# (§1) Briefly, K562 or Ba/F3-p210 cells were transfected according to the protocol above. One day following transfection, 1.0×10^6 cells per transfection group were collected and re-suspended in sterile PBS. […] Finally, 1.1 mL of cell/methylcellulose mixture was seeded in duplicate and allowed to grow at 37° C. and 5% CO2 for 7 days. Colony formation was assessed by counting colonies in two 200 μm2 areas on the plate. Experiments were performed once in duplicate (n=1 in duplicate). All kit reagents and media were purchased from Stem Cell Technologies (Vancouver, BC, Canada).
# [6] = test system: K562 cells; assay: Nuclear (DNA) segmentation apoptosis assay in transfected K562 cells; assay type: cell-based, human; conditions: 48 h, vs EGFP control
# Protocol: CC^mut3 was then tested for its ability to induce apoptosis in K562 cells. Apoptosis was observed using 3 different methods: 1) nuclear segmentation; 2) induction of the effector Caspase-3/7; and 3) 7AAD/Annexin V staining.
# Nuclear segmentation analysis was performed as previously described (16). Briefly, immediately prior to cellular analysis, 2-well live cell chambers were treated for 15 min with poly-L-lysine (Sigma-Aldrich, St. Louis, Mo., USA), to allow cell adhesion in the wells. Forty-eight h following transfection, the transfected K562 cells were transferred to the pretreated 2-well live cell chambers. Cells were incubated for 15 min at 37° C. following the addition of 0.3 μL Hoechst H33342 nuclear stain (Life Technologies, Carlsbad, Calif., USA). Cells were then imaged using an inverted fluorescence microscope (Olympus IX701F, Scientific Instrument Co., Sunnyvale, Calif., USA) equipped with an F-view Monochrome CCD camera. Fields of view were selected based on EGFP fluorescence when viewing using a 40× oil immersion objective. Nuclei from cells that were positively transfected (positive for EGFP fluorescence) were categorized as either healthy (round or kidney-shaped nuclei) or segmented (punctate staining of nuclei), and the percentage of cells with segmented DNA was calculated (n=3 in replicate).
# [7] = test system: K562 cells; assay: Proliferation/viability of transfected K562 cells (trypan blue exclusion); assay type: cell-based, human; conditions: 72 h following transfection, trypan blue exclusion, vs mCherry control, n=1
# Protocol: K562 cells, human leukemia Bcr-Abl^+ cells (gifted from Kojo Elenitoba-Johnson, University of Michigan), were grown in RPMI 1640 media supplemented with 10% FBS, 1% penicillin-streptomycin-glutamine, and 0.1% gentamicin (complete medium). […] Transfections were carried out two days following cell passaging. Then, 2.0×10^6 cells were collected and transfected with 6 μg pf pEGFP, pEGFP-CC^mut3, pmCherry, or pmCherry-CC^mut3 according to the Cell Line Nucleofector Kit V protocol, program T-013, using the Amaxa Nucleofector II (Lonza Group, Basel, Switzerland).
# Cell counts were performed using a standard light microscope.
# Two days following cell passaging, 2.0×10^6 cells were collected by centrifugation at 500×g for 10 min for each transfection group. Following cell collection, 6 lig DNA (pEGFP, pEGFP-CC, pEGFP-CCmut3, pEGFP-Helix2WT, pEGFP-Helix2mut3, pmCherry, pmCherry-CCmut3, or pmCherry-CappedHelix2mut3) was transfected into cells according to the Cell Line Nucleofector® Kit V protocol (program T-013) using the Amaxa Nucleofector II (Lonza Group, Basel, Switzerland). Following transfection, the DNA/cell mixture was added to 10 mL Complete RPMI 1640 media and allowed to incubate at 37° C. for 24, 48, or 72 h until analysis, depending on the assay.
# (§2) Forty-eight or 72 h following transfection, 100 μL of treated K562 or Ba/F3-p210 cells was mixed with 100 μL trypan blue solution (Life Technologies). The numbers of viable cells (those impermeable to the trypan blue dye) from four different quadrants in an INCYTO™ C-CHIP™ Neubauer hemacytometer (VWR International, Radnor, Pa., USA) were counted using a standard light microscope. Quadrant counts were then averaged to obtain the number of viable cells per mL. For experiments using the Helix2mut3 construct, counts were performed on one aliquot per transfection (n=3 in replicate). In experiments involving the CappedHelix2mut3 construct, counts were performed three times using separate 100 pt aliquots from one transfection (n=1 in triplicate).
# [8] = test system: Ba/F3 cells expressing native BCR-ABL1 (Ba/F3-p210); assay: Colony forming assay of transfected Ba/F3-p210 cells; assay type: cell-based, mouse; conditions: cappedHelix2mut3 study, n=1, data not shown
# Protocol: as §1
# [9] = test system: Ba/F3-P210 cells; assay: Viability of transfected Ba/F3-p210 cells (trypan blue exclusion); assay type: cell-based, mouse; conditions: 72 h following transfection, vs mCherry control, n=1
# Protocol: Two days following cell passaging, 3.0×10^6 cells were collected by centrifugation at 750×g for 10 min for each transfection group. Following collection, 4 μg DNA was transfected into cells according to the Cell Line Nucleofector® Kit V protocol (program X-001) using the Amaxa Nuelcofector II. Following nucleofection, the DNA/cell mixture was added to 500 μL plain RPMI and incubated for 20 min. After incubation, the 500 μL cell/DNA/RPMI mixture was added to complete RPMI 1640 media and allowed to incubate at 37° C. for 72 h until analysis.
# as §2
compound,measurement,setting,value
"Cc1ccc(NC(=O)c2ccc(CN3CCN(C)CC3)cc2)cc1Nc1nccc(-c2cccnc2)n1 [imatinib, reference compound]","colony formation, in words",[1],equally effective in reducing colony number
"Cc1ccc(C(=O)Nc2ccc(CN3CCN(C)CC3)c(C(F)(F)F)c2)cc1C#Cc1cnc2cccnn12 [ponatinib, 3-[2-(imidazo[1,2-b]pyridazin-3-yl)ethynyl]-4-methyl-N-{4-[(4-methylpi-perazin-1-yl)methyl]-3-(trifluoromethyl)phenyl}benzamide, reference compound]",reduction of colony formation,[2],47%
same,effect in liquid culture,[3],no effect
same,patients with serious side effects,[4],~12%
"Helix2mut3: residues 23-72: α-helix2 of BCR-ABL CC domain plus five flanking residues each end, with CCmut3 mutations (MELRSVGDIEQELERAEARIRRDEQRVNQERFRMIYLETLLAKEKKSYDR)","colony formation, of EGFP control","[5]; 7 days after seeding, normalized to EGFP control, n=1 in duplicate",approximately 67%
same,"colony formation (transformative ability), in words",[5],"outperformed negative control EGFP; also recorded: showed inhibitory activity; also recorded: prevented outgrowth of colonies to a greater extent than the EGFP control, however, not as well as the full length CCmut3"
same,induction of apoptosis (nuclear/DNA segmentation),[6],outperformed negative control EGFP; also recorded: statistically significant increase in apoptosis; also recorded: apoptosis was induced to a similar extent between both CCmut3 and Helix2mut3; also recorded: significantly induced apoptosis
cappedHelix2mut3: residues 27-68: α-helix2 of BCR-ABL CC domain with capping residues S27 and G68 and CCmut3 mutations (SVGDIEQELERAEARIRRDEQRVNQERFRMIYLETLLAKEKG),proliferation/viability of K562 cells,[7],failed to out-perform the negative control; also recorded: did not display inhibition of cell proliferation; also recorded: no evidence of BCR-ABL inhibition
same,colony formation,"[5]; cappedHelix2mut3 study, n=1, data not shown",failed to out-perform the negative control; also recorded: same pattern as in the cell proliferation studies
same,colony formation,[8],same pattern as in the cell proliferation studies
same,proliferation/viability of Ba/F3-p210 cells,[9],replicated to a similar extent; also recorded: no evidence of BCR-ABL inhibition
"helix2 domain: helix2 domain (amino acids 28-67) with the CC^mut3 mutations, delivered as a gene via nucleofection (MELRSVGDIEQELERAEARIRRDEQRVNQERFRMIYLETLLAKEKKSYDR)","colony formation (transformative ability), in words",[5],sufficient to inhibit colony formation in K562 cells

# — patent publication US10494417B2, “Peptide inhibitors of BCR-ABL oligomerization” (University of Utah Research Foundation, priority 2014, dated 2019)
